# Molecular target: CpdAEc (N-His-CpdAEc) (Escherichia coli, UniProt P0AEW4)
# Assay type: biochemical
# Conditions: 50 mM Tris-HCl pH 8.0, 0.14 M NaCl, 2 mM MgCl2, room temperature
# CpdAEc (N-His-CpdAEc), sequence (P0AEW4 whole entry): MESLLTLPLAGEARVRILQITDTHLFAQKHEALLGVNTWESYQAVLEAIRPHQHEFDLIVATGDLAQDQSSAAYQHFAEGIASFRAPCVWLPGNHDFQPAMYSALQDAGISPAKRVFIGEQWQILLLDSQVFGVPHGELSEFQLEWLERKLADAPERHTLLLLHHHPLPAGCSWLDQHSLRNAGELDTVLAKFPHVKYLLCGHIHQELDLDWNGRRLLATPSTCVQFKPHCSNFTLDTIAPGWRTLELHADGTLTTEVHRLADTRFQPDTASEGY
smiles,measurement,value
C[N+](C)(C)CCOP(=O)([O-])OC[C@H](O)CO [glycerophosphocholine],choline oxidase / HRP coupled Amplex Red fluorometric assay,both Rv0805 and CpdAEc produced choline and Gly3P from glycerophosphocholine (GPC)

# Reference: PMC10315211 (Molecular microbiology, 2023)
